Experiments:
Mus musculus [1] = assay: Inhibition of 11beta-HSD1 in ICR mouse assessed as conversion of [3H]cortisone to [3H]cortisol at 10 mg/kg, po after 4 hrs by scintillation counting; format: functional
[2] = target: T1, Nuclear receptor subfamily 1 group I member 2 (Homo sapiens, UniProt O75469); assay: Agonist activity at PXR; format: functional
T1 sequence (O75469 whole entry): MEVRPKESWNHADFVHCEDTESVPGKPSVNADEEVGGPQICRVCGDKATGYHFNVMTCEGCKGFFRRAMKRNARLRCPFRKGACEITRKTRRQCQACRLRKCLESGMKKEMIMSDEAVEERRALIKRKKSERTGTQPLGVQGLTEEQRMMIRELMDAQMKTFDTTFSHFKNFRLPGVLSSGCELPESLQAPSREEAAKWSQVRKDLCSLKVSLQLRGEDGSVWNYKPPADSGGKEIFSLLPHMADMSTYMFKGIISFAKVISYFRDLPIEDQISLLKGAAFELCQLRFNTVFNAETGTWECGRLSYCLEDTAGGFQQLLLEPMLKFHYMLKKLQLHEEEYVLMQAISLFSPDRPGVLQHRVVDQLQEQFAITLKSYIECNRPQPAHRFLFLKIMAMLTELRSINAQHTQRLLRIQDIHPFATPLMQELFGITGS

[3] = target: T1, Nuclear receptor subfamily 1 group I member 2; assay: Agonist activity at PXR at 10 uM; format: functional
[4] = target: 11-beta-hydroxysteroid dehydrogenase 1 (Homo sapiens, UniProt P28845); assay: Inhibition of human 11beta-HSD1 expressed in CHO-K1 cells assessed as conversion of [3H]cortisone to [3H]cortisol by scintillation counting; format: cell-based
[5] = target: 11-beta-hydroxysteroid dehydrogenase 1 (Mus musculus, UniProt P50172); assay: Inhibition of mouse 11beta-HSD1 expressed in CHO-K1 cells assessed as conversion of [3H]cortisone to [3H]cortisol by scintillation counting; format: cell-based
Mus musculus [6] = assay: Inhibition of 11beta-HSD1 in ICR mouse assessed as conversion of [3H]cortisone to [3H]cortisol at 10 mg/kg, po after 16 hrs by scintillation counting; format: functional
[7] = target: T2, 11-beta-hydroxysteroid dehydrogenase type 2 (Homo sapiens, UniProt P80365); assay: Inhibition of human 11beta-HSD2
T2 sequence (P80365 whole entry): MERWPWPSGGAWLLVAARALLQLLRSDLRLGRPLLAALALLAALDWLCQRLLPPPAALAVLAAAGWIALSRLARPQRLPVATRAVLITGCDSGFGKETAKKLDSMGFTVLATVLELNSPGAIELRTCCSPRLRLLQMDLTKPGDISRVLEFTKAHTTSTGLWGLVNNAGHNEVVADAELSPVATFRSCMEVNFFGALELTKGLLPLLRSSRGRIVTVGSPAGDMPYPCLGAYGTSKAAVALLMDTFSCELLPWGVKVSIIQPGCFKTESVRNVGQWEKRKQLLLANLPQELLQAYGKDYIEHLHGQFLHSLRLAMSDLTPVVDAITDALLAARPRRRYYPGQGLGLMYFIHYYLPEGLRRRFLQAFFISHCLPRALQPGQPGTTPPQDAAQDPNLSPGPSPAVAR

[8] = target: T3, 11-beta-hydroxysteroid dehydrogenase type 2 (Mus musculus, UniProt P51661); assay: Inhibition of mouse 11beta-HSD2
T3 sequence (P51661 whole entry): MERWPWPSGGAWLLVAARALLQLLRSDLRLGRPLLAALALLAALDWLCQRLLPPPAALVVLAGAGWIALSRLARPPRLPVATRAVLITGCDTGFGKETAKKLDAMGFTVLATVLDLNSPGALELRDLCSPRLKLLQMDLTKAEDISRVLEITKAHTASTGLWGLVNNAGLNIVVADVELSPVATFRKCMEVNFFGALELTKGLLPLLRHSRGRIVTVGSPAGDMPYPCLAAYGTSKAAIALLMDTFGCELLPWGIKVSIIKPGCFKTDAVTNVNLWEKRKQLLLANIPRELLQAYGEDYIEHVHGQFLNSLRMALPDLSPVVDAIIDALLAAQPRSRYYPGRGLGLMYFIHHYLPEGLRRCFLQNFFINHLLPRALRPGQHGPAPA

Sequence of 11-beta-hydroxysteroid dehydrogenase 1 (Homo sapiens, UniProt P28845) (P28845 whole entry): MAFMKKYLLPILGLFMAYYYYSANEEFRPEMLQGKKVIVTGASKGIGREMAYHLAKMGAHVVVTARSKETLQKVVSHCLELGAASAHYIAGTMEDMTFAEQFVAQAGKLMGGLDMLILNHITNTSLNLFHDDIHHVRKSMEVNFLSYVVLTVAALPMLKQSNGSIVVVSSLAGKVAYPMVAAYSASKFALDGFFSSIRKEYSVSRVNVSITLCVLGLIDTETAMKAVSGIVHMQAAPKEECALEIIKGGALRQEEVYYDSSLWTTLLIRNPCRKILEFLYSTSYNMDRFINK
Sequence of 11-beta-hydroxysteroid dehydrogenase 1 (Mus musculus, UniProt P50172) (P50172 whole entry): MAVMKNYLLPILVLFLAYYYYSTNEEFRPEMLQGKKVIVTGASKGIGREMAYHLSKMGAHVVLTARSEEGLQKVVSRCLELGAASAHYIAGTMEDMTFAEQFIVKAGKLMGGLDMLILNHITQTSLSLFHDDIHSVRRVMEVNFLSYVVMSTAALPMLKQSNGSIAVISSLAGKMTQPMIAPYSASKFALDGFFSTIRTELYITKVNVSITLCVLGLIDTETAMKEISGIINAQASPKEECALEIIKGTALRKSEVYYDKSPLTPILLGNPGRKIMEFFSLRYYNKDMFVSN

SMILES	EC50 [2] [nM]	Activity [3] [%]	IC50 [4] [nM]	IC50 [5] [nM]	IC50 [7] [nM]	IC50 [8] [nM]	inhibition in vivo at 10 mg/kg (Mus musculus [1]) [%]	inhibition in vivo at 10 mg/kg (Mus musculus [6]) [%]
Cn1c(-c2ccc(C(N)=O)cc2)nnc1C1(c2ccc(Cl)cc2)CCC1	> 30000	21	1	26	> 4000	> 4000	35	4
Cn1c(-c2ccc(C(=O)NC3CCC3)cc2)nnc1C1(c2ccc(Cl)cc2)CCC1	> 30000	4	470	6.6	> 4000	> 4000		
Cn1c(-c2ccc(C(=O)N3CCC3)cc2)nnc1C1(c2ccc(Cl)cc2)CCC1	> 30000	10	250	62	> 4000	> 4000		
Cn1c(-c2ccc(C(=O)N3CCCC3)cc2)nnc1C1(c2ccc(Cl)cc2)CCC1	> 30000	10	650	130	> 4000	> 4000	24	0
Cn1c(-c2ccc(C(N)=O)cc2Cl)nnc1C1(c2ccc(Cl)cc2)CCC1	> 30000	16	< 1	1	> 4000	> 4000	57	12
CC(=O)Nc1ccc(-c2nnc(C3(c4ccc(Cl)cc4)CCC3)n2C)cc1	> 30000	21	5.8	9.1	> 4000	> 4000	59	10
Cn1c(-c2ccc(NC(=O)c3cccs3)cc2)nnc1C1(c2ccc(Cl)cc2)CCC1	8700	55	8.7	1	> 4000	> 4000	63	2
Cn1c(-c2ccc(N)cc2Cl)nnc1C1(c2ccc(Cl)cc2)CCC1	> 30000	35		< 1	2300		90	38
Cn1c(-c2ccc(-c3cncnc3)cc2)nnc1C1(c2ccc(Cl)cc2)CCC1	> 30000	7	1.5	2.6	> 4000	> 4000	46	-4
Cn1c(-c2ccc(-c3cnoc3)cc2)nnc1C1(c2ccc(Cl)cc2)CCC1	23000	29	1.1	4.1	> 4000	> 4000		
Cn1c(-c2ccc(-c3ccsc3)cc2)nnc1C1(c2ccc(Cl)cc2)CCC1	3000	78		< 1	1300		81	33
Clc1ccc(C2(c3nnc4n3CCCCCC4)CCC2)cc1	1600	100						
Cn1c(-c2ccc(-c3ccccc3)cc2)nnc1C1(c2ccc(Cl)cc2)CCC1	1700	90						

The next lines start with results.

EC50 [2] [nM]	Activity [3] [%]	IC50 [4] [nM]	IC50 [5] [nM]	IC50 [7] [nM]	IC50 [8] [nM]	SMILES	inhibition in vivo at 10 mg/kg (Mus musculus [1]) [%]	inhibition in vivo at 10 mg/kg (Mus musculus [6]) [%]
> 30000	-1	76	87	> 4000	> 4000	Cn1c(-c2ccc(C(=O)O)cc2)nnc1C1(c2ccc(Cl)cc2)CCC1	10	-8
> 30000	18	69	7.8	> 4000	> 4000	CCNC(=O)c1ccc(-c2nnc(C3(c4ccc(Cl)cc4)CCC3)n2C)cc1	71	0
> 30000	11	540	3	> 4000	> 4000	Cn1c(-c2ccc(C(=O)NC(C)(C)C)cc2)nnc1C1(c2ccc(Cl)cc2)CCC1	71	5
> 30000	14	300	11	> 4000	> 4000	Cn1c(-c2ccc(C(=O)NC3CC3)cc2)nnc1C1(c2ccc(Cl)cc2)CCC1		
> 30000	16	560	200	> 4000	> 4000	Cn1c(-c2ccc(C(=O)N3CCOCC3)cc2)nnc1C1(c2ccc(Cl)cc2)CCC1		
18000	28	11	19	> 4000	> 4000	Cn1c(-c2ccc(C(=O)O)cc2Cl)nnc1C1(c2ccc(Cl)cc2)CCC1	90	38
> 30000	22		15	3100		Cn1c(-c2ccc(N)cc2)nnc1C1(c2ccc(Cl)cc2)CCC1	77	12
> 30000	-2.5	69	11	> 4000	> 4000	Cn1c(-c2ccc(NC(=O)c3cnccn3)cc2)nnc1C1(c2ccc(Cl)cc2)CCC1	67	5
> 30000	18	9.5	< 1	> 4000	> 4000	Cc1cc(C(=O)Nc2ccc(-c3nnc(C4(c5ccc(Cl)cc5)CCC4)n3C)cc2)c(C)o1	91	81
> 30000	21	8	2.8	> 4000	> 4000	Cn1c(-c2ccc(NC(=O)c3ccno3)cc2)nnc1C1(c2ccc(Cl)cc2)CCC1	69	11
> 30000	34	< 1	< 1	> 4000	> 4000	CC(=O)Nc1ccc(-c2nnc(C3(c4ccc(Cl)cc4)CCC3)n2C)c(Cl)c1	79	27
> 30000	33	2.6	1.9	> 4000	> 4000	Cn1c(-c2ccc(NC(=O)c3cnccn3)cc2Cl)nnc1C1(c2ccc(Cl)cc2)CCC1	82	46
> 30000	9	1.2	2.9	> 4000	> 4000	Cn1c(-c2ccc(-c3cnc(O)nc3)cc2)nnc1C1(c2ccc(Cl)cc2)CCC1		
> 30000	12	4.8	1.1	> 4000	> 4000	Cn1c(-c2ccc(-c3ccc(N)nn3)cc2)nnc1C1(c2ccc(Cl)cc2)CCC1		
> 30000	4	120	68	> 4000	> 4000	Cn1c(-c2ccc(-c3cnccn3)cc2C(N)=O)nnc1C1(c2ccc(Cl)cc2)CCC1		
	35			> 4000		Cn1c(-c2ccc(-c3cccnc3)cc2Cl)nnc1C1(c2ccc(Cl)cc2)CCC1		
